The text below walks through data of patent publication US20050113420A1, “Methionine aminopeptidase inhibitor” (priority 2002, published 2005).

Assay [1] addresses T1, EcMetAP (Escherichia coli, UniProt P0AE18).
T1 construct: made in house; host or cells: E. coli
As to the kind of experiment: EcMetAP inhibition, Met-S-C-Phe thiopeptolide/DTNB assay at 412 nm. The assay is classed as biochemical, E. coli. The conditions noted are these: for IC50: Co-loaded enzyme, estimated IC50 at eight inhibitor concentrations, read-out: IC50(μM) EMetAP. The source says: EcMetAP was cloned and overexpressed in E. coli, and purified by (NH4)2SO4 precipitation and Q-Sepharose column separation to give apo-EcMetAP.
(§1) Hydrolysis of the synthesized Met-S-C-Phe thiopeptolide substrate generates a free thiol group, which reacts with excessive DTNB instantly to produce a highly chromogenic product, 3-carboxyl-4-nitrothiophenol (ε412=13,600 M^−1cm^−1). Therefore, the enzymatic reaction catalyzed by MetAP can be continuously monitored at 412 nm on a SpectraMAX 340 microplate reader.
(§2) Employed conventional screening method (Anal Biochem. 2000, 280: 159-65)
(§3) All the compounds were initially screened at the multiple concentrations 2 μg/mL, 20 μg/mL, 100 μg/mL. When the inhibitory activities of the compounds were larger than 50%, their estimated IC50 value were determinated at eight inhibitor concentrations.

In assay [2] the target is hMetAP1 (Homo sapiens, UniProt P53582). As to the kind of experiment: hMetAP1 inhibition. It is filed as biochemical.
Text: as §1, §2, §3

Assay [3] deals with type 2 methionine aminopeptidase (Homo sapiens, UniProt P50579). To be noted: covalent binding inhibitors; cited from earlier work.
Sequence of type 2 methionine aminopeptidase (P50579 whole entry): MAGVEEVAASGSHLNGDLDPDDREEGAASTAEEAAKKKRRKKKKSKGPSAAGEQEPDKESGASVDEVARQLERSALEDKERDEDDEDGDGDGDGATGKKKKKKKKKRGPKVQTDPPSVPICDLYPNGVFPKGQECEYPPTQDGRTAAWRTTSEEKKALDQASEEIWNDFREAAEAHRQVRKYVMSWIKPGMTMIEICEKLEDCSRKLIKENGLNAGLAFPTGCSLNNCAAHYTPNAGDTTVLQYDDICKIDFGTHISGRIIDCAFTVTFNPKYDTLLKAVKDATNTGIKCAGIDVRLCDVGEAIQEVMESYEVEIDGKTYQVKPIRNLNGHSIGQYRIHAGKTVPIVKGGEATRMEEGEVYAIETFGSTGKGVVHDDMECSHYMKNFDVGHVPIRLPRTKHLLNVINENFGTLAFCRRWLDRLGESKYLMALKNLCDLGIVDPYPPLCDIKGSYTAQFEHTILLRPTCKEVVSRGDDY
Assay [4] deals with EcMetAP1 (Escherichia coli, UniProt P0AE18). To be noted: read-out: IC50 EcMetAP1; cited from earlier work.
Sequence of EcMetAP1 (P0AE18 whole entry): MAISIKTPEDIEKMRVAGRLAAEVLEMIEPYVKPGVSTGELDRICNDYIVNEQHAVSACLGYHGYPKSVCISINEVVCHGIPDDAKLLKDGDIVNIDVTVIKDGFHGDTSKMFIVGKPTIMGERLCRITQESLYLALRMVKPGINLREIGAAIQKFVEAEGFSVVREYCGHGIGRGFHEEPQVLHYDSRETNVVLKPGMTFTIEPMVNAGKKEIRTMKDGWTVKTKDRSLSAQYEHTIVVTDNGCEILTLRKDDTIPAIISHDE

T1 sequence (P0AE18 whole entry): as above

For `Nc1ccccc1C(=O)Nc1nccs1` [Compound 7], the inhibition at 20 µg/mL in assay [1] (read-out: inhibition of EMetAP) worked out at 30%. Regarding `O=C(Nc1nccs1)c1cc(Cl)ccn1` [Compound 16], the IC50 in assay [1] is 4.84 µM. For `O=C(Nc1ncc(Br)s1)c1ccccn1` [Compound 17], the IC50 in assay [1] is 6 µM. On the same count and under the same terms, for `O=C(Nc1nccs1)c1ccc2ccccc2n1` [Compound 27] the value was 51 µM. The same measure, in the same setting: under `COc1ccnc(C(=O)Nc2nccs2)c1` [Compound 30] stands 9.22 µM; under `O=C(Nc1nccs1)c1ncccc1O` [Compound 31], 2.33 µM; under `O=C(Nc1nccs1)c1cccc(CO)n1` [Compound 32], 5.82 µM.

With `CC(=O)Oc1cccnc1C(=O)Nc1nccs1` [Compound 34], the IC50 in assay [2] was 29 µM; in assay [1], 8.2 µM.

For `COc1cccnc1C(=O)Nc1nccs1` [Compound 35], the IC50 in assay [2] was 20.9 µM; in assay [1], 4.49 µM. Taken in the same sequence, the figures for `O=C(Oc1cccnc1C(=O)Nc1nccs1)c1ccccc1` [Compound 36] were 28.7 µM and 1.1 µM. For `COc1ccccc1C(=O)Oc1cccnc1C(=O)Nc1nccs1` [Compound 37] the same measures were 15.4 µM and 1.9 µM. For `O=C(Oc1cccnc1C(=O)Nc1nccs1)c1cccc([N+](=O)[O-])c1` [Compound 41] the same measures were 7.3 µM and 1.91 µM. Take `COc1ccccc1/C=C/C(=O)Oc1cccnc1C(=O)Nc1nccs1` [Compound 44]: the IC50 in assay [1] was 1.8 µM. For `O=C(Oc1cccnc1C(=O)Nc1nccs1)c1ccc(F)c(Br)c1` [Compound 45], the IC50 in assay [2] was 17.4 µM; in assay [1], 1.35 µM. For `O=C(Oc1cccnc1C(=O)Nc1nccs1)c1ccc(F)cc1` [Compound 46] the same measures were 7 µM and 1.31 µM. For `O=C(Nc1nccs1)c1ncccc1OCc1ccccc1` [Compound 47] the same measures were 7.8 µM and 5.31 µM. For `Nc1cccnc1C(=O)Nc1nccs1` [Compound 50] the same measures were 11 µM and 5.56 µM.

Turning to `O=C(Nc1cccnc1C(=O)Nc1nccs1)c1ccccc1` [Compound 51], the IC50 in assay [1] was 0.14 µM. As for `CC(C)(C)OC(=O)Nc1cccnc1C(=O)Nc1nccs1` [Compound 52], in assay [1], the IC50 was 1.25 µM. The same measure, in the same setting: under `O=C(Nc1cccnc1C(=O)Nc1nccs1)c1ccc(F)cc1` [Compound 53] stands 0.05 µM; under `Cc1nc(C(=O)Nc2nccs2)cs1` [Compound 55], 0.4 µM. Turning to `CO[C@@H]1[C@H](OC(=O)NC(=O)CCl)CC[C@]2(CO2)[C@H]1[C@@]1(C)O[C@@H]1CC=C(C)C` [TNP-470], the “IC50 MetAPs” value in assay [3] is recorded as “in the nM range”. On to `CO[C@@H]1[C@H](OC(=O)/C=C/C=C/C=C/C=C/C(=O)O)CC[C@]2(CO2)[C@H]1[C@@]1(C)O[C@@H]1CC=C(C)C` [fumagillin], for which, in assay [3], the “IC50 MetAPs” value is on record as “in the nM range”. For AHHPA-Ala-Leu-Val-Phe-OMe, the IC50 in assay [4] is 5 µM.
